Results on 14 molecules are retold here after patent US20180194762A1 (Pharmacyclics LLC, priority 2017, published 2018).

Holding throughout (assay type): biochemical
In one test the target is T1, panel of kinases (Homo sapiens, UniProt P51813).
T1 sequence (P51813 1-675): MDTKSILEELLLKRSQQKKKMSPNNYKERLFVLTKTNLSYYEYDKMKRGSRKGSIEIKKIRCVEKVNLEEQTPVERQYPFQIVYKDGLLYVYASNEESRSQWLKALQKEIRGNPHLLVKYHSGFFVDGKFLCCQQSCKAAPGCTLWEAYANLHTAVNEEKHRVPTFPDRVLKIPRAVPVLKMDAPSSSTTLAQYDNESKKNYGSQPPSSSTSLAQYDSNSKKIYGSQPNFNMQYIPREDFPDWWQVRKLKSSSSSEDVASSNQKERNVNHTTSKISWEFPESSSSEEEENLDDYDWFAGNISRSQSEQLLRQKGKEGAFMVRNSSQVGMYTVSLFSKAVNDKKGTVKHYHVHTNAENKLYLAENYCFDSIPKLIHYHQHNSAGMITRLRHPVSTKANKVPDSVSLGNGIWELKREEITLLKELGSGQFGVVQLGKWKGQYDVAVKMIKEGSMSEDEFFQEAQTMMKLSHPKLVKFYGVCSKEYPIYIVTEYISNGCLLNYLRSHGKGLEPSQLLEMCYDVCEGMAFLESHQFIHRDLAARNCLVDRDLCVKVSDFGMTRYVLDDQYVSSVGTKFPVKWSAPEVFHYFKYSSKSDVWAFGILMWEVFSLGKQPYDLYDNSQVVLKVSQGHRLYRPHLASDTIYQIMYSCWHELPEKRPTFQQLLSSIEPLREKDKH
Description: Inhibition of a panel of kinases (in vitro HotSpot kinase assay, 33P-ATP, 1 μM ATP), other kinases. Particulars: BMX wild-type, read-out: BMX-WT IC50. In a few lines: (§1)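 Degree of kinase inhibition is determined in vitro using isolated enzymes, a matched substrate and radiolabelled ATP (1 μM).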

The target in a further test is T2, TEC (Homo sapiens, UniProt P42680).
T2 sequence (P42680 1-631): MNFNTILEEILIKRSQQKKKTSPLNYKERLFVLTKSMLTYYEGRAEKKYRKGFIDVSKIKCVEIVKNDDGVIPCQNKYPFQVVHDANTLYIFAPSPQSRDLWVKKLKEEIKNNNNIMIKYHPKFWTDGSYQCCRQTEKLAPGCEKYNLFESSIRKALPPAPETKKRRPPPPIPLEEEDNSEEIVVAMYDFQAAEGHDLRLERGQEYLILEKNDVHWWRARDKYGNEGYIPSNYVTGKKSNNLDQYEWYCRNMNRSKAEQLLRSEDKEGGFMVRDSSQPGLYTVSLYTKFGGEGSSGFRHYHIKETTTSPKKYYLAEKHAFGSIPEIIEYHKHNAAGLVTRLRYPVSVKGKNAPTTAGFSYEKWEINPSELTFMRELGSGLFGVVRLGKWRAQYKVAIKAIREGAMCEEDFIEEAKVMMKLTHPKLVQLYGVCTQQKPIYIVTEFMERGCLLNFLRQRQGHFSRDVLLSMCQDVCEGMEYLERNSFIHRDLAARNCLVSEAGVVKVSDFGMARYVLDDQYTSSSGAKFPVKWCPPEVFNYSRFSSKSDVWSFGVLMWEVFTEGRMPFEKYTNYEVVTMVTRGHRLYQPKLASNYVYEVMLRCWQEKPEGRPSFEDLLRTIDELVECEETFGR
Description: Inhibition of a panel of kinases (in vitro HotSpot kinase assay, 33P-ATP, 1 μM ATP). Particulars: for IC50: HotSpot kinase assay, 1 μM ATP; for TEC/Btk: ratio of TEC IC50 to Btk IC50 (selectivity). In a few lines:
as §1

The target of the next test is T3, Btk (Homo sapiens, UniProt Q06187).
T3 construct: purified from insect cells as a full-length construct containing a N-terminal 6X-His tag; His6 (N); made in house; host or cells: insect cells (Method C)
T3 sequence (Q06187 whole entry): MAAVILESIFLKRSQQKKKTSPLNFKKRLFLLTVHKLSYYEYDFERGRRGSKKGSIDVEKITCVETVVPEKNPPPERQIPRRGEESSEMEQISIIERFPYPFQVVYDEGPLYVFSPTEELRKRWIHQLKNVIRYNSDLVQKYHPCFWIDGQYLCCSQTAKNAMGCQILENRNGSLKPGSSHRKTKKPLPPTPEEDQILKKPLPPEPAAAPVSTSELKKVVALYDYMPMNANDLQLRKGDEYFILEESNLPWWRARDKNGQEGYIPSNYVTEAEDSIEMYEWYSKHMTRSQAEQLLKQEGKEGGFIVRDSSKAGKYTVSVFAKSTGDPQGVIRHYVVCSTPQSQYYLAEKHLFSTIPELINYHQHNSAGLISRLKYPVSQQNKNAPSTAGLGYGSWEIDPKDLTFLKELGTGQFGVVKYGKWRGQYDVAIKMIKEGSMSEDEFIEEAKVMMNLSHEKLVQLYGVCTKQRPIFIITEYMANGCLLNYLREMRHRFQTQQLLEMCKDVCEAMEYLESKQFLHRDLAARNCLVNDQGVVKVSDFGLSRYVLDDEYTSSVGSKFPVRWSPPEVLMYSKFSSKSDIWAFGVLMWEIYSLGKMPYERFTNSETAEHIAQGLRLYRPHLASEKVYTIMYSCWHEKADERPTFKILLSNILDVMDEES
Briefly: Btk in vitro inhibitory activity (one of Method A TR-FRET, Method B electrophoretic mobility shift, Method C radiometric filter binding). An outline of the steps: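 Method A: TR-FRET with 0.5 nM Btk at [ATP]=Km, EDTA-quenched, 665/615 nm ratio; Ki(app) converted to IC50. Method B: 1 nM full-length His6 human BTK, 1 μM FAM peptide, pH 7.5, mobility-shift product/sum ratio, 12-point 4-parameter fit. Method C: radiometric filter binding, 8 nM His-tagged BTK, 0.2 mg/mL poly-Glu-Tyr.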
On the technique in general: Mobility shift assays separate free from complexed probe on a gel.

Setting [1] is: wild-type Btk, read-out: Btk-WT IC50.
Where [2] appears, read: method is one of A, B or C, not stated which, read-out: IC50 values against Btk.

Like-named read-outs stand apart in the source and are kept apart here.

In the case of `CC(C)(C)c1noc(C(=O)NC2(c3ccc(-c4ccnc5[nH]nc(N[C@@H]6CCNC6)c45)cc3)CC2)n1` [Example 71, 3-tert-butyl-N-{1-[4-(3-{[(3R)-pyrrolidin-3-yl]amino}-1H-pyrazolo[3,4-b]pyridin-4-yl)phenyl]cyclopropyl}-1,2,4-oxadiazole-5-carboxamide], the results for the IC50 at panel of kinases, at TEC and at Btk (setting [1]) were greater than 10000 nM, greater than 10000 nM and 42.2 nM, respectively. The TEC/Btk on TEC is recorded as greater than 100.
Take `C[C@H](NC(=O)c1noc(C(C)(C)C)n1)c1ccc(-c2ccnc3[nH]nc(N[C@@H]4CCNC4)c23)cc1` [Example 72, 5-tert-butyl-N-[(1S)-1-[4-(3-{[(3R)-pyrrolidin-3-yl]amino}-1H-pyrazolo[3,4-b]pyridin-4-yl)phenyl]ethyl]-1,2,4-oxadiazole-3-carboxamide]: the IC50 on panel of kinases, against TEC and at Btk (setting [1]) was greater than 10000 nM in each case. Besides, on TEC, the TEC/Btk is greater than 100.
In the case of `C[C@@H](NC(=O)c1noc(C(C)(C)C)n1)c1ccc(-c2ccnc3[nH]nc(N[C@@H]4CCNC4)c23)cc1` [Example 73, 5-tert-butyl-N-[(1R)-1-[4-(3-{[(3R)-pyrrolidin-3-yl]amino}-1H-pyrazolo[3,4-b]pyridin-4-yl)phenyl]ethyl]-1,2,4-oxadiazole-3-carboxamide], the figures for the concentration for half-maximal inhibition (IC50) on panel of kinases, on TEC and on Btk (setting [1]) were greater than 10000 nM, greater than 10000 nM and 37.9 nM, respectively. Also, the TEC/Btk on TEC is recorded as greater than 100.
In the case of `CC(C)(C)c1nc(C(=O)NCc2cc(F)cc(-c3ccnc4[nH]nc(N[C@@H]5CCNC5)c34)c2)no1` [Example 74, 5-tert-butyl-N-{[3-fluoro-5-(3-{[(3R)-pyrrolidin-3-yl]amino}-1H-pyrazolo[3,4-b]pyridin-4-yl)phenyl]methyl}-1,2,4-oxadiazole-3-carboxamide], the IC50 at panel of kinases, at TEC and on Btk (setting [1]) was greater than 10000 nM each time.
In the case of `CC(C)(C)c1ccc(C(=O)NCc2cc(F)cc(-c3ccnc4[nH]nc(N[C@@H]5CCNC5)c34)c2)cc1` [Example 75, 4-tert-butyl-N-{[3-fluoro-5-(3-{[(3R)-pyrrolidin-3-yl]amino}-1H-pyrazolo[3,4-b]pyridin-4-yl)phenyl]methyl}benzamide], the IC50 at panel of kinases, against TEC and on Btk (setting [1]) was greater than 10000 nM in each case.
Take `CC(C)(C)n1cc(C(=O)NCc2ccc(-c3ccnc4[nH]nc(N[C@@H]5CCNC5)c34)cc2F)cn1` [Example 76, 1-tert-butyl-N-{[2-fluoro-4-(3-{[(3R)-pyrrolidin-3-yl]amino}-1H-pyrazolo[3,4-b]pyridin-4-yl)phenyl]methyl}-1H-pyrazole-4-carboxamide]: the IC50 at panel of kinases was 8360 nM; against TEC, 8720 nM; at Btk (setting [1]), 51.1 nM. For the same molecule, the TEC/Btk on TEC is 171.
On the same counts, the results for `CC(C)(C)c1nnc(C(=O)NCc2ccc(-c3ccnc4[nH]nc(N[C@@H]5CCNC5)c34)cc2F)o1` [Example 77, 5-tert-butyl-N-{[2-fluoro-4-(3-{[(3R)-pyrrolidin-3-yl]amino}-1H-pyrazolo[3,4-b]pyridin-4-yl)phenyl]methyl}-1,3,4-oxadiazole-2-carboxamide] are greater than 10000 nM, greater than 10000 nM, 159 nM and greater than 100.
Take `CC(C)(C)c1n[nH]c(C(=O)NCc2ccc(-c3ccnc4[nH]nc(N[C@@H]5CCNC5)c34)cc2F)n1` [Example 78, 3-tert-butyl-N-{[2-fluoro-4-(3-{[(3R)-pyrrolidin-3-yl]amino}-1H-pyrazolo[3,4-b]pyridin-4-yl)phenyl]methyl}-1H-1,2,4-triazole-5-carboxamide]: the IC50 on panel of kinases, against TEC and at Btk (setting [1]) was greater than 10000 nM throughout.
For `CC(C)(C)c1noc(C(=O)NCc2ccc(-c3ccnc4[nH]nc(N[C@@H]5CCNC5)c34)cc2F)n1` [Example 79, 3-tert-butyl-N-{[2-fluoro-4-(3-{[(3R)-pyrrolidin-3-yl]amino}-1H-pyrazolo[3,4-b]pyridin-4-yl)phenyl]methyl}-1,2,4-oxadiazole-5-carboxamide], the concentration for half-maximal inhibition (IC50) at panel of kinases was 1790 nM; against TEC, 1730 nM; at Btk (setting [2]), less than 10 nM; at Btk (setting [1]), 6.27 nM. The TEC/Btk on TEC came to 276.
For `C=CC(=O)N1CC[C@@H](Nc2n[nH]c3nccc(-c4ccc(CNC(=O)c5cnn(C(C)(C)C)c5)c(F)c4)c23)C1` [Example 80, 1-tert-butyl-N-{[2-fluoro-4-(3-{[(3R)-1-(prop-2-enoyl)pyrrolidin-3-yl]amino}-1H-pyrazolo[3,4-b]pyridin-4-yl)phenyl]methyl}-1H-pyrazole-4-carboxamide], in that order: 76 nM, 57 nM, less than 10 nM, 0.129 nM and 440.
As for `C=CC(=O)N1CC[C@@H](Nc2n[nH]c3nccc(-c4ccc(CNC(=O)c5nnc(C(C)(C)C)o5)c(F)c4)c23)C1` [Example 81, 5-tert-butyl-N-{[2-fluoro-4-(3-{[(3R)-1-(prop-2-enoyl)pyrrolidin-3-yl]amino}-1H-pyrazolo[3,4-b]pyridin-4-yl)phenyl]methyl}-1,3,4-oxadiazole-2-carboxamide], the IC50 was 89 nM on panel of kinases, 131 nM against TEC, less than 10 nM on Btk (setting [2]) and 0.227 nM at Btk (setting [1]). Moreover, the TEC/Btk on TEC worked out at 577.
For `C=CC(=O)N1CC[C@@H](Nc2n[nH]c3nccc(-c4ccc(CNC(=O)c5nc(C(C)(C)C)n[nH]5)c(F)c4)c23)C1` [Example 82, 3-tert-butyl-N-{[2-fluoro-4-(3-{[(3R)-1-(prop-2-enoyl)pyrrolidin-3-yl]amino}-1H-pyrazolo[3,4-b]pyridin-4-yl)phenyl]methyl}-1H-1,2,4-triazole-5-carboxamide], the figures for the IC50 at panel of kinases, against TEC and at Btk (setting [1]) were 113 nM, 357 nM and 30.6 nM, respectively. The TEC/Btk at TEC stood at 12.
Turning to `C=CC(=O)N1CC[C@@H](Nc2n[nH]c3nccc(-c4ccc(CNC(=O)c5nc(C(C)(C)C)no5)c(F)c4)c23)C1` [Example 83, 3-tert-butyl-N-{[2-fluoro-4-(3-{[(3R)-1-(prop-2-enoyl)pyrrolidin-3-yl]amino}-1H-pyrazolo[3,4-b]pyridin-4-yl)phenyl]methyl}-1,2,4-oxadiazole-5-carboxamide], the IC50 on panel of kinases was 52 nM; against TEC, 28 nM; at Btk (setting [2]), less than 10 nM; on Btk (setting [1]), 0.056 nM. Besides, the TEC/Btk on TEC was 493.
On the same counts, the results for `C=CC(=O)N1CC[C@@H](Nc2n[nH]c3nccc(-c4ccc(CNC(=O)c5noc(CC)n5)c(F)c4)c23)C1` [Example 84, 5-ethyl-N-{[2-fluoro-4-(3-{[(3R)-1-(prop-2-enoyl)pyrrolidin-3-yl]amino}-1H-pyrazolo[3,4-b]pyridin-4-yl)phenyl]methyl}-1,2,4-oxadiazole-3-carboxamide] are 87 nM, 361 nM, less than 10 nM, 7.83 nM and 46.

In general, IC50 refers to the midpoint of a concentration-inhibition curve.
